How the values were obtained:
[1] = tested on: rice blast pathogenic fungus (Pyricularia oryzae); assay type: in vivo; settings: 5 ppm
[2] = tested on: Trichomonas vaginalis Ito; assay: Antitrichomonas activity test using mice; assay type: in vivo, Trichomonas vaginalis Ito in SLC-ICR strain male mice
Source text: Test Compounds: SF-1540-A' (substance SF-1540 treated with methanol). Control--Flagyl (MNZ, available from Shionogi Seiyaku K.K., Japan)=Metronidazol--1'-(2'-Hydroxyethyl)-2'-methyl-5'-nitroimidazole [drawing 1]
1. Test protozoa strain: Trichomonas vaginalis Ito
2. Host animals: SLC-ICR strain male mice of average body weight of 20 g. and 5-week age, each group consisting of 5 animals.
3. Inoculation of protozoa: Protozoa were inoculated to Bacto-Kupferberg Trichomonas base (Difco; 20% calf serum added), cultivation was conducted at 37° C. for 24 hours, propagated protozoa were collected and centrifuged at 1500 r.p.m. for 5 minutes and then washed twice with centrifugation in sterilized Locke-Ringer's solution. The supernatant was discarded and the residue was diluted with sterilized Ringer's solution so as to have a protozoal number of 500×10^4 ml. Each 0.2 ml. portion (the protozoal number of 100×10^4) was inoculated to mice at subcutaneous sites of the back thereof wherein fur was previously removed.
4. Preparation of test samples: Each test compound was asceptically weighed, finely-divided in a sterilized mortar and then suspended in a 1% CMC solution to form suspensions of given concentrations.
5. Dose and administration: The SF-1540-A' was used at 3 dose levels: 50 mg./kg. (1 mg./0.2 ml./mouse/day), 25 mg./kg. (0.5 mg./0.2 ml./mouse/day) and 12.5 mg./kg. (0.25 mg./0.2 ml./mouse/day), while Flagyl as control was used at 2 dose levels: 25 mg./kg. (0.5 mg./0.2 ml./mouse/day) and 12.5 mg./kg. (0.25 mg./0.2 ml./mouse/day). After 24 hours from protozoa inoculation, the SF-1540-A' was given subcutaneously and Flagyl orally once a day for 6 days (Total, 6 times). As control, each 0.2 ml. portion of a 1% CMC solution was subcutaneously administered.
Formation of an abscess at a subcutaneous site of the back of a host animal was visually detectable for its protuberance after 48 hours from the protozoa inoculation.
Size of abscess was measured when sacrificed and cultivated to confirm effectiveness of the test compound after 24 hours from the 6 administrations.

| Structure (SMILES) | Preventive & curative value [1] | Average number of diseased spots per leaf ([1]; after 5 days) | difference from 1% CMC group (Tukey) ([2]; 12.5 mg./kg. orally) | difference from 1% CMC group (Tukey) ([2]; 25 mg./kg. orally) | abscess, visual observation ([2]; 25 mg./kg. orally once a day, after 3 administrations) | abscess at sacrifice, 24 hours after 6 administrations ([2]; mouse, in vivo, po) | bulge upon sacrifice ([2]; mouse, in vivo, po) |
| --- | --- | --- | --- | --- | --- | --- | --- |
| CN(CCC(N)CC(=O)NC1C=CC(n2ccc(N)nc2=O)OC1C(=O)O)C(=N)N (stereo not shown) [Blasticidin S] | 85% | 3.6 | – | – | – | – | – |
| Cc1ncc([N+](=O)[O-])n1CCO [Flagyl, 1'-(2'-Hydroxyethyl)-2'-methyl-5'-nitroimidazole] | – | – | significant at the 5% level of significance | significant at the 1% level of significance | a remarkable reduction in abscess | abscess disappeared | only a slight bulge |

Source: patent publication US4181715A (priority 1975, dated 1980)
